Test results published in paper PMC4057637, “Efficacy of novel antibacterial compounds targeting histidine kinase YycG protein” (Applied Microbiology and Biotechnology, 2014).

Legend:
[1] = system: S. epidermidis ATCC 35984; assay: Derivatives combined with vancomycin or cefazolin (FIC index); assay type: cell-based; conditions: S. epidermidis ATCC 35984
Excerpt: Combination antimicrobial therapy is widely used to take advantage of different mechanisms of action. It may potentiate the effect of individual antimicrobial agents by synergic action (Bijnsdorp et al. [2011]; Cokol et al. [2011]). The glycopeptide antibiotics, such as vancomycin, can bind the peptidoglycan side chains in the cell wall and prevent cross-linking during cell wall synthesis. Vancomycin has been considered to be one of the most reliable therapeutic agents against staphylococcal infections, but it is unable to clear biofilms even at high concentration (128 mg/l) (Climo et al. [1999]; Darouiche et al. [1994]; Tenover et al. [2001]). […] YycGF also plays an important role in the synthesis of peptidoglycan in B. subtilis and S. aureus (Bisicchia et al. [2007]; Dubrac and Msadek [2004]). In a preliminary study, we assessed the effects of the combined application of the derivatives with vancomycin and cefazolin against S. epidermidis ATCC 35984 according to the method of Odds ([2003]) (Cottagnoud et al. [2003]). […] No antagonism was observed between the derivatives and vancomycin or cefazolin (Table S1).
17 Table S1. The derivatives combined with vancomycin or cefazolin against S. epidermidis
Derivatives Antibiotics MIC (mg/L) FICIa Synergyb
Derivative Antibiotic In combination
alone alone (Derivative/Antibiotic)
19 a The FICI was calculated as FIC indexes= (MICderivative A in combination/MICderivative A
20 alone)+(MICantibiotic B in combination/MIC antibiotic B alone).
21 b The interaction between the two antibacterials is noted as follows: FIC index≤0.5,
22 Synergy (+); 0.5<FIC index≤4 (-), No interaction; FIC≥4.0, Antagonism.

[2] = system: mature (24-h-old) biofilms of S. epidermidis ATCC 35984; assay: Bacterial viability in mature biofilms by CLSM with Live/Dead staining; assay type: cell-based; conditions: Staphylococcus epidermidis, ATCC35984, 16 h, read-out: proportion of viable cells in mature biofilms
Protocol: A diluted overnight culture of the bacteria was inoculated into cell culture glass bottom dishes (WPI, USA) and incubated at 37 °C for 24 h. […] The biofilms were washed with PBS and stained with SYTO9 and propidium iodide (PI), both of which were used at a concentration of 1 μM. SYTO9-stained live cells and PI-stained cells dead in biofilms were visualized by a Leica TCS SP5 confocal laser scanning microscope with a ×63 1.4-NA oil immersion objective. Three-dimensional biofilm images were created by IMARIS 7.0.0 software (Bitplane).

[3] = system: 24-h biofilms of S. epidermidis ATCC 35984; assay: Rabbit subcutaneous S. epidermidis biofilm infection model; assay type: in vivo, New Zealand White rabbits; conditions: vancomycin 128 mg/l, local injection at 0, 24, 48 h; 72 h
Protocol: To test the effectiveness in vivo of H2-74 and H2-81, 24-h biofilms of S. epidermidis grown on polyethylene disks were imbedded subcutaneously into the New Zealand White rabbits and treated with the derivatives for 72 h in a modification of the method used previously (He et al. [2011]). Disks were cut from polyethylene 96-well plates (8 mm diameter, 1 mm thickness), sterilized with 75 % ethanol and placed in a Petri dish (100 mm diameter). An overnight culture of S. epidermidis ATCC 35984 (20 ml) was inoculated into the dish and incubated at 37 °C for 24 h. The disks covered with biofilms were then implanted subcutaneously in female New Zealand White rabbits (2.0–2.5 kg) that had been anesthetized with pentobarbital sodium (5 mg/kg i.v.). Four incisions (10 mm) were made on the back of the rabbit along the spine bilaterally after removal of fur, and the sub cutis was carefully dissected to form a 2-cm × 3-cm cavity. Two biofilm-covered polyethylene disks were implanted into each cavity, and to minimize the effect of between-animal variation, four different treatments were given locally to each rabbit.
Vancomycin (128 mg/l) and 0.1 % DMSO were administered as the controls. Twenty-four hours after the last treatment, the rabbits were euthanized and the implants were taken out with sterile forceps. Biofilms were scraped from the disks, and the viable bacteria were determined by CFU counting, as previously described (He et al. [2011]). All animals were housed and used in compliance with the guidelines of the Institute of Animal Care and Use Committee, and the protocol was approved by the committee.

Compound	MIC Antibiotic alone [1] [µg/mL]	viability at 128 µg/mL [2] [%]	viable bacteria recovered from implanted disks [3] [log10 CFU/cm^2]
Cc1nnc(SCC2=C(C(=O)O)N3C(=O)[C@@H](NC(=O)Cn4cnnn4)[C@H]3SC2)s1 [cefazolin, reference compound]	8		
CN[C@H](CC(C)C)C(=O)N[C@H]1C(=O)N[C@@H](CC(N)=O)C(=O)N[C@H]2C(=O)N[C@H]3C(=O)N[C@H](C(=O)N[C@H](C(=O)O)c4cc(O)cc(O)c4-c4cc3ccc4O)[C@H](O)c3ccc(c(Cl)c3)Oc3cc2cc(c3O[C@@H]2O[C@H](CO)[C@@H](O)[C@H](O)[C@H]2O[C@H]2C[C@](C)(N)[C@H](O)[C@H](C)O2)Oc2ccc(cc2Cl)[C@H]1O [vancomycin, reference compound]	4	88.6	5.21 ± 0.24
